Data on three compounds can be found in patent publication US9593068B2, “Derivatives of tartaric acid” (RATIOPHARM GMBH, priority 2013, dated 2017).

The data set is described as follows: Kinetics of MMF-release during incubation in intestinal fluid of the minipig (LC-MS quantification of MMF). The data set is classed as in vitro ADME, Göttingen SPF minipig. Conditions: diluted small intestinal fluid (1/20 v/v with 50 mM KH2PO4, pH 6.8), 37° C., samples at 0-120 min; reference DMF; FIG. 1 / FIG. 2. As to the method:
Investigation and Comparision of the Kinetics of MMF-Release of the Different Compounds of the Present Invention and DMF During Incubation in Intestinal Fluid of the Minipig
Intestinal fluid samples were prepared at CiToxLAB Scantox A/S. The samples were taken from 1 female Göttingen SPF minipig from CiToxLAB Scantox A/S standard stock, originally obtained from Ellegaard Göttingen Minipigs A/S, DK-4261 Dalmose, Denmark. The minipig was 10 months old and the body weight was 21 kg. The minipig was identified by an individual number tagged to the pinna of one ear (animal number is documented in the raw data).
The minipig was fasted for approximately 28 hours before sampling of intestinal fluid. On the day of sampling, the minipig was weighed and anaesthetised by an intramuscular injection in the neck or in the left hind leg (about 0.3 ml per kg body weight) of a mixture of Zoletil 50 Vet., Virbac, France (125 mg tiletamine and 125 mg zolazepam), Rompun Vet., Bayer, Germany (20 mg xylazine/ml, 6.5 ml), Ketaminol Vet., Veterinaria AG, Switzerland (100 mg ketamine/ml, 1.5 ml) and Methadon DAK, Nycomed Danmark, Denmark (10 mg methadon/ml, 2.5 ml).
Intestinal fluid was obtained by flushing one jejunal segment, measuring 30.2 cm, with saline. Intestinal fluid together with saline used for flushing was placed in centrifuge tubes. All samples were frozen at −70° C. and shipped on dry ice to the Sponsor for further use.
2.1.1. Analytical Instrument • Instrument: Acquity UPLC system coupled with a TQ detector (triple quadruple mass spectrometer)
Calibration solutions were prepared by serial dilution of SSMMF; diluted small intestinal fluid (diluted by 1/20 v/v with 50 mM KH2PO4, pH 6.8; (dil IF) was used as matrix. The dilution scheme is given below:
50 μl sample (calibration solution or sample of an incubation experiment with MMF prodrugs) was mixed with 50 μl WSISTD, 20 μl formic acid and 100 μl acetonitrile. This mixture was vortexed for 15 sec and centrifuged (13,000 rpm, 3 min). Thereafter, 4 μl of the supernatant were subjected to LC-MS analysis.
2.2. Incubation Experiments with DMF (Reference) and Compounds of the Invention
Stock solutions were prepared in DMSO. Concentrations in stock solutions were 5.00, 2.50 and 1.67 mmol for compounds with one, two and three molar MMF equivalents.
In a HPLC glass vial, 8 μl of stock solution were mixed with 792 μl dil IF and the mixture was stirred (250 rpm) in a water bath (T=37° C.).
Immediately after mixing as well as at t=15 min, 30 min, 60 min, 90 min and 120 min, 50 μl were withdrawn and prepared for LC-MS analysis as described in chapter. 2.1.3.
Incubations were continued and in case the result of analysis of the 120 min indicated the presence of remaining intact MMF prodrug, additional samples were taken (t=360 or 420 min and at 1,260 or 1,320 min) and analysed.
The concentration/peak area ratio data pairs were subjected to regression analysis with 1/x weighting and the resulting calibration equation was used to quantify the MMF content in incubation samples.

As to `COC(=O)/C=C/C(=O)OCCN(CCO)CCOC(=O)/C=C/C(=O)OC` [Example 3, (2-Hydroxy-ethyl)-bis-[2-((E)-3-methoxycarbonyl-acryloyloxy)-ethyl]-amine], the “hydrolyzation (to MMF) compared to DMF” value was “modified hydrolyzation compared to DMF” and the “release kinetics (MMF release) compared to DMF” value was “significantly slower than the one of DMF”.

As to `CCOC(=O)[C@H](OC(=O)/C=C/C(=O)OC)[C@@H](OC(=O)/C=C/C(=O)OC)C(=O)OCC` [Example 1, (E)-But-2-enedioic acid (1R,2R)-1,2-bis-ethoxy-carbonyl-2-((E)-3-methoxycarbonyl-acryloyloxy)-ethyl ester methyl ester], the “hydrolyzation (to MMF) compared to DMF” value is on record as “modified hydrolyzation compared to DMF” and the “release kinetics (MMF release) compared to DMF” value is “significantly slower than the one of DMF”.

With `COC(=O)/C=C/C(=O)O[C@@H](C(=O)OC(C)C)[C@@H](OC(=O)/C=C/C(=O)OC)C(=O)OC(C)C` [Example 2, (E)-But-2-enedioic acid (1R,2R)-1,2-bis-isopropoxycarbonyl-2-((E)-3-methoxycarbonyl-acryloyloxy)-ethyl ester methyl ester], the “hydrolyzation (to MMF) compared to DMF” value was “modified hydrolyzation compared to DMF” and the “release kinetics (MMF release) compared to DMF” value is reported as “significantly slower than the one of DMF”.
